# How the values were obtained:
# [1] = molecular target: ABHD6 (Mus musculus (Mouse), UniProt Q8R2Y0); assay: Mouse brain proteomes from inhibitor treated mice (oral gavage, sacrifice 4 h after administration, ABPP analysis), ABHD6; assay type: in vivo; details: 5 mg/kg oral gavage
# Protocol: (§1) Preparation of Mouse Brain Proteomes from Inhibitor Treated Mice.
# (§2) Inhibitors were administered to wild-type C57Bl/6J by oral gavage in a vehicle, e.g. PEG400/Ethanol/PBS (7/2/1). Each animal was sacrificed 4 h following administration and brain proteomes were prepared and analyzed according to previously established methods (See Niphakis, M. J., et al. (2011) ACS Chem. Neurosci. and Long, J. Z., et al. Nat. Chem. Biol. 5:37-44). Data from this assay is shown in Table 2 (% inhibition at 5 mg/kg).
# [2] = molecular target: FAAH (Mus musculus (Mouse), UniProt O08914); assay: Mouse brain proteomes from inhibitor treated mice (oral gavage, sacrifice 4 h after administration, ABPP analysis), FAAH; assay type: in vivo; details: 5 mg/kg oral gavage
# Sequence of FAAH (O08914 whole entry): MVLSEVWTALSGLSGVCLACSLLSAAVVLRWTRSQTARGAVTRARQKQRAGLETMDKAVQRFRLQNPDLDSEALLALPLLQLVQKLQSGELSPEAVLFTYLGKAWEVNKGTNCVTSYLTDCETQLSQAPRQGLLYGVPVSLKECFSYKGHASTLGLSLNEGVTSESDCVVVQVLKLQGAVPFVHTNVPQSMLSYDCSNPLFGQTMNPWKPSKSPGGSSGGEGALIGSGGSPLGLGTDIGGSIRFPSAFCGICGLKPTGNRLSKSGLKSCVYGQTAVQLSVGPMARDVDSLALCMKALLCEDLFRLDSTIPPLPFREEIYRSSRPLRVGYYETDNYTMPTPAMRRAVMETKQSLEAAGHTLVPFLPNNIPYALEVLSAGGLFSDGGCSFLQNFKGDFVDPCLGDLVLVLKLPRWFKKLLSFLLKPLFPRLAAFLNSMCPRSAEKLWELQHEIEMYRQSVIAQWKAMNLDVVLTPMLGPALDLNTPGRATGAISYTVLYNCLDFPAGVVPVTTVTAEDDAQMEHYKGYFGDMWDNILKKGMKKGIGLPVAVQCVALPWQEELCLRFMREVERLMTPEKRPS
# Protocol: as §1, §2
# Sequence of ABHD6 (Q8R2Y0 whole entry): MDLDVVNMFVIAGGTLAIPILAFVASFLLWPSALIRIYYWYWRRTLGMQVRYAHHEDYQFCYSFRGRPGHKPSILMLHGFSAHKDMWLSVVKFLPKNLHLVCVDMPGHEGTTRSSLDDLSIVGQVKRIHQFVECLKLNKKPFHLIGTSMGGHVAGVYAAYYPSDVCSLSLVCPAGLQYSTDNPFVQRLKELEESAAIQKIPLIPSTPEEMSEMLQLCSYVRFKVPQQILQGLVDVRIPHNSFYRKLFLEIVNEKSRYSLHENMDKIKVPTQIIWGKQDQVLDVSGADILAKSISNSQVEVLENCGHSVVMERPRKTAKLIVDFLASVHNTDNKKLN
Compound,ABHD6 % Inh 5 mg/kg (mouse) [1],FAAH % Inh 5 mg/kg (mouse) [2]
"CN1CCN(c2c(Cl)cccc2CN2CC3(CCN(C(=O)OC(C(F)(F)F)C(F)(F)F)CC3)CC2(C)C)CC1 [Example 189, 1,1,1,3,3,3-Hexafluoropropan-2-yl 2-(3-chloro-2-(4-methylpiperazin-1-yl)benzyl)-3,3-dimethyl-2,8-diazaspiro[4.5]decane-8-carboxylate]",# (# is < 25%),# (# is < 25%)
CC1(C(=O)O)CCN(c2cc(C(F)(F)F)ccc2CN2CCCC23CCN(C(=O)OC(C(F)(F)F)C(F)(F)F)CC3)C1 (stereo not shown) [Example 230],# (# is < 25%),# (# is < 25%)
"O=C(OC(C(F)(F)F)C(F)(F)F)N1CCC2(CCCN2Cc2cc(N3CCC(F)CC3)cc(C(F)(F)F)c2)CC1 [Example 45, 1,1,1,3,3,3-Hexafluoropropan-2-yl 1-(3-(4-fluoropiperidin-1-yl)-5-(trifluoromethyl)benzyl)-1,8-diazaspiro[4.5]decane-8-carboxylate]",# (# is < 25%),# (# is < 25%)
"O=C(OC(C(F)(F)F)C(F)(F)F)N1CCC2(CCCN2Cc2cc(OC3CCOCC3)cc(C(F)(F)F)c2)CC1 [Example 170, 1,1,1,3,3,3-Hexafluoropropan-2-yl 1-(3-(tetrahydro-2H-pyran-4-yloxy)-5-(trifluoromethyl)benzyl)-1,8-diazaspiro[4.5]decane-8-carboxylate]",# (# is < 25%),# (# is < 25%)
"CC(=O)N1CCN(c2cc(C(F)(F)F)ccc2CN2CCCC23CCN(C(=O)OC(C(F)(F)F)C(F)(F)F)CC3)CC1 [Example 88, 1,1,1,3,3,3-Hexafluoropropan-2-yl 1-(2-(4-acetylpiperazin-1-yl)-4-(trifluoromethyl)benzyl)-1,8-diazaspiro[4.5]decane-8-carboxylate]",# (# is < 25%),# (# is < 25%)
O=C(O)C1CCN(c2cc(C(F)(F)F)ccc2CN2CCCC23CCN(C(=O)OC(C(F)(F)F)C(F)(F)F)CC3)C1 (stereo not shown) [Example 199],# (# is < 25%),# (# is < 25%)
"O=C(OC(C(F)(F)F)C(F)(F)F)N1CCC2(CCCN2Cc2ccc(Cl)cc2N2CCN(CCF)CC2)CC1 [Example 19, 1,1,1,3,3,3-Hexafluoropropan-2-yl 1-(4-chloro-2-(4-(2-fluoroethyl)piperazin-1-yl)benzyl)-1,8-diazaspiro[4.5]decane-8-carboxylate]",# (# is < 25%),# (# is < 25%)
"O=C(OC(C(F)(F)F)C(F)(F)F)N1CCC2(CCCN2Cc2ccc(C(F)(F)F)cc2Oc2cccnc2)CC1 [Example 173, 1,1,1,3,3,3-Hexafluoropropan-2-yl 1-(2-(pyridin-3-yloxy)-4-(trifluoromethyl)benzyl)-1,8-diazaspiro[4.5]decane-8-carboxylate]",# (# is < 25%),# (# is < 25%)
O=C(O)C1CCN(Cc2cc(CN3CCCC34CCN(C(=O)OC(C(F)(F)F)C(F)(F)F)CC4)cc(OC(F)(F)F)c2)C1 (stereo not shown) [Example 270],# (# is < 25%),# (# is < 25%)
CS(=O)(=O)C1CN(c2cc(C(F)(F)F)ccc2CN2CCCC23CCN(C(=O)OC(C(F)(F)F)C(F)(F)F)CC3)C1 [Example 268],,# (# is < 25%)
"CC1(C)CC2(CCN(C(=O)OC(C(F)(F)F)C(F)(F)F)CC2)CN1Cc1cccc(Cl)c1N1CCOCC1 [Example 54, 1,1,1,3,3,3-Hexafluoropropan-2-yl 2-(3-chloro-2-morpholinobenzyl)-3,3-dimethyl-2,8-diazaspiro[4.5]decane-8-carboxylate]",# (# is < 25%),# (# is < 25%)
"O=C(OC(C(F)(F)F)C(F)(F)F)N1CCC2(CCN(Cc3ccc(Cl)cc3N3CC4COCC4C3)C2)CC1 (stereo not shown) [Example 25, 1,1,1,3,3,3-Hexafluoropropan-2-yl 2-(4-chloro-2-(tetrahydro-1H-furo[3,4-c]pyrrol-5(3H)-yl)benzyl)-2,8-diazaspiro[4.5]decane-8-carboxylate]",# (# is < 25%),# (# is < 25%)
"O=C(OC(C(F)(F)F)C(F)(F)F)N1CCC2(CCN(Cc3cccc(Cl)c3N3CCC(F)(F)CC3)C2)CC1 [Example 64, 1,1,1,3,3,3-Hexafluoropropan-2-yl 2-(3-chloro-2-(4,4-difluoropiperidin-1-yl)benzyl)-2,8-diazaspiro[4.5]decane-8-carboxylate]",# (# is < 25%),# (# is < 25%)
"O=C(OC(C(F)(F)F)C(F)(F)F)N1CCC2(CCCN2Cc2ccc(Cl)cc2N2CCCCC2)CC1 [Example 74, 1,1,1,3,3,3-Hexafluoropropan-2-yl 1-(4-chloro-2-(piperidin-1-yl)benzyl)-1,8-diazaspiro[4.5]decane-8-carboxylate]",# (# is < 25%),# (# is < 25%)
"O=C(OC(C(F)(F)F)C(F)(F)F)N1CCC2(CCCN2Cc2cc(Oc3cccnc3)cc(C(F)(F)F)c2)CC1 [Example 174, 1,1,1,3,3,3-Hexafluoropropan-2-yl 1-(3-(pyridin-3-yloxy)-5-(trifluoromethyl)benzyl)-1,8-diazaspiro[4.5]decane-8-carboxylate]",# (# is < 25%),# (# is < 25%)
O=C(O)C1COCCN1c1cc(CN2CCCC23CCN(C(=O)OC(C(F)(F)F)C(F)(F)F)CC3)cc(C(F)(F)F)c1 (stereo not shown) [Example 200],# (# is < 25%),# (# is < 25%)
"O=C(OC(C(F)(F)F)C(F)(F)F)N1CCC2(CCCN2Cc2cc(OC3CCS(=O)(=O)CC3)cc(C(F)(F)F)c2)CC1 [Example 176, 1,1,1,3,3,3-Hexafluoropropan-2-yl 1-(3-((1,1-dioxidotetrahydro-2H-thiopyran-4-yl)oxy)-5-(trifluoromethyl)benzyl)-1,8-diazaspiro[4.5]decane-8-carboxylate]",# (# is < 25%),# (# is < 25%)
"O=C(COc1cc(CN2CCCC23CCN(C(=O)OC(C(F)(F)F)C(F)(F)F)CC3)cc(C(F)(F)F)c1)N1CCCC1 [Example 168, 1,1,1,3,3,3-Hexafluoropropan-2-yl 1-(3-(2-oxo-2-(pyrrolidin-1-yl)ethoxy)-5-(trifluoromethyl)benzyl)-1,8-diazaspiro[4.5]decane-8-carboxylate]",# (# is < 25%),# (# is < 25%)
"O=C(O)C1CCN(Cc2cc(Cl)cc(CN3CCCC34CCN(C(=O)OC(C(F)(F)F)C(F)(F)F)CC4)c2)CC1 [Example 194, 1-(3-Chloro-5-((8-(((1,1,1,3,3,3-hexafluoropropan-2-yl)oxy)carbonyl)-1,8-diazaspiro[4.5]decan-1-yl)methyl)benzyl)piperidine-4-carboxylic acid]",# (# is < 25%),# (# is < 25%)
N#Cc1ccc(CN2CCCC23CCN(C(=O)OC(C(F)(F)F)C(F)(F)F)CC3)c(N2CCC(C(=O)O)CC2)c1 [Example 249],# (# is < 25%),# (# is < 25%)
"CC1(C)CC2(CCN(C(=O)OC(C(F)(F)F)C(F)(F)F)CC2)CN1Cc1ccc(Cl)cc1N1CCOCC1 [Example 50, 1,1,1,3,3,3-Hexafluoropropan-2-yl 2-(4-chloro-2-morpholinobenzyl)-3,3-dimethyl-2,8-diazaspiro[4.5]decane-8-carboxylate]",# (# is < 25%),# (# is < 25%)
"O=C(OC(C(F)(F)F)C(F)(F)F)N1CCC2(CCN(Cc3ccc(C(F)(F)F)cc3N3CCCCC3)C2)CC1 [Example 23, 1,1,1,3,3,3-Hexafluoropropan-2-yl 2-(2-(piperidin-1-yl)-4-(trifluoromethyl)benzyl)-2,8-diazaspiro[4.5]decane-8-carboxylate]",# (# is < 25%),# (# is < 25%)
"CC(=O)NC1CCN(c2cc(Cl)ccc2CN2CCCC23CCN(C(=O)OC(C(F)(F)F)C(F)(F)F)CC3)CC1 [Example 104, 1,1,1,3,3,3-Hexafluoropropan-2-yl 1-(2-(4-acetamidopiperidin-1-yl)-4-chlorobenzyl)-1,8-diazaspiro[4.5]decane-8-carboxylate]",# (# is < 25%),# (# is < 25%)
O=C(O)C1CCN(Cc2cc(CN3CCCC34CCN(C(=O)OC(C(F)(F)F)C(F)(F)F)CC4)cc(C(F)(F)F)c2)C1 (stereo not shown) [Example 253],# (# is < 25%),# (# is < 25%)
O=C(O)C1CCN(Cc2cc(CN3CCCC34CCN(C(=O)OC(C(F)(F)F)C(F)(F)F)CC4)cc(OC(F)(F)F)c2)CC1 [Example 269],# (# is < 25%),# (# is < 25%)
"CC1(C)CC2(CCN(C(=O)OC(C(F)(F)F)C(F)(F)F)CC2)CN1Cc1ccc(C(F)(F)F)cc1N1CCOCC1 [Example 51, 1,1,1,3,3,3-Hexafluoropropan-2-yl 3,3-dimethyl-2-(2-morpholino-4-(trifluoromethyl)benzyl)-2,8-diazaspiro[4.5]decane-8-carboxylate]",# (# is < 25%),# (# is < 25%)
"O=C(OC(C(F)(F)F)C(F)(F)F)N1CCC2(CCN(Cc3cccc(Cl)c3N3CCC(F)CC3)C2)CC1 [Example 65, 1,1,1,3,3,3-Hexafluoropropan-2-yl 2-(3-chloro-2-(4-fluoropiperidin-1-yl)benzyl)-2,8-diazaspiro[4.5]decane-8-carboxylate]",,# (# is < 25%)

# Source: patent publication US10781211B2, “Spirocycle compounds and methods of making and using same” (Lundbeck La Jolla Research Center, Inc., priority 2016, dated 2020)
